# Measured values taken from patent publication US20090053807A1 (Novo Nordisk A/S, priority 1998, published 2009).
# Where two headings read alike, the source gives them in different places. Residues, ends and D or L forms follow the SMILES beside them. No end group written: not given here.
# Tests used:
# free fat cells = test: Adipocyte / free fat cell (FFC) assay, 3H glucose incorporation into lipid; conditions: for FFC Pot.: potency; for FFC Pot. / FFC Pot.: agonist or antagonist: Table 8
# [1] = biological target: soluble human insulin mini-receptor (mIR) (Homo sapiens, UniProt P06213, DEL496-730); test: Fluorescence polarization competition with FITC-RP9, mIR; assay type: binding; conditions: target mIR, label FITC-RP9, FP
# Sequence of soluble human insulin mini-receptor (mIR) (P06213 with tags, fused parts or gaps DEL496-730 limits assumed): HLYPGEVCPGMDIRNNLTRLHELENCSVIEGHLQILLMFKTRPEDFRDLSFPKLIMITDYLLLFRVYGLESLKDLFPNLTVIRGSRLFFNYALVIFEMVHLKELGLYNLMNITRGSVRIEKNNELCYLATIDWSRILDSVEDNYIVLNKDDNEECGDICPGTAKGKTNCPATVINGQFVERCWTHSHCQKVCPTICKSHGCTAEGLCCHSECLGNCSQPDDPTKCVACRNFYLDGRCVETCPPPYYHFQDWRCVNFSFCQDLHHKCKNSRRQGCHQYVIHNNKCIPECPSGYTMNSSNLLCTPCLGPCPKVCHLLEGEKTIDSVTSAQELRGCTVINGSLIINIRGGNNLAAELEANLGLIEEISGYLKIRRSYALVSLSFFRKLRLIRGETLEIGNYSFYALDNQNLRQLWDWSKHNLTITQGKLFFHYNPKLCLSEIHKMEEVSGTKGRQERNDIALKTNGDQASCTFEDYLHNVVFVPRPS
# [2] = biological target: T1, human insulin receptor (HIR) (Homo sapiens, UniProt P06213); test: Insulin receptor binding, competition with 125I-labeled insulin (radio-receptor assay); conditions: for HIR binding affinity: comparison with monomers / homodimers
# T1 construct: made in house
# T1 sequence (P06213 28-758 limits assumed): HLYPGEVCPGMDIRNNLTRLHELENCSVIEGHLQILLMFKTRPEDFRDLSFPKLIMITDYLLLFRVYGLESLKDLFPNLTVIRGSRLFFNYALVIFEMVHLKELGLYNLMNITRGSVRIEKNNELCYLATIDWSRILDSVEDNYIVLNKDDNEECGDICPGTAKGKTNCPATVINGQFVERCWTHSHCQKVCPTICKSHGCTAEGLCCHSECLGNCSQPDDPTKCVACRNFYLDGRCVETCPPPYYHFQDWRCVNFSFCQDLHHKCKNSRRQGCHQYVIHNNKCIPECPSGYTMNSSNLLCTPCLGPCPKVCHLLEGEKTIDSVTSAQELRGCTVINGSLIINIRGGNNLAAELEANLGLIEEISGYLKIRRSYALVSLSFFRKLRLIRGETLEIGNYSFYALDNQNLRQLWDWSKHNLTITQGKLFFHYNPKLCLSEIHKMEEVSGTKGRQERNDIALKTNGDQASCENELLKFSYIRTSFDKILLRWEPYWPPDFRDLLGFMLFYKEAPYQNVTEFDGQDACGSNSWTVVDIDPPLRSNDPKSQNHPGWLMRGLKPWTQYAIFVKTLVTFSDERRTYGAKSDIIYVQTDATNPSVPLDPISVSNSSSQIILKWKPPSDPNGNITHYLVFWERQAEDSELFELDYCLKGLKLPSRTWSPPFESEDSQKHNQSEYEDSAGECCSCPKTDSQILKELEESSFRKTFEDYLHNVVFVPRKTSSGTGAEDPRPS
# T1 sequence (P06213 763-1382 limits assumed): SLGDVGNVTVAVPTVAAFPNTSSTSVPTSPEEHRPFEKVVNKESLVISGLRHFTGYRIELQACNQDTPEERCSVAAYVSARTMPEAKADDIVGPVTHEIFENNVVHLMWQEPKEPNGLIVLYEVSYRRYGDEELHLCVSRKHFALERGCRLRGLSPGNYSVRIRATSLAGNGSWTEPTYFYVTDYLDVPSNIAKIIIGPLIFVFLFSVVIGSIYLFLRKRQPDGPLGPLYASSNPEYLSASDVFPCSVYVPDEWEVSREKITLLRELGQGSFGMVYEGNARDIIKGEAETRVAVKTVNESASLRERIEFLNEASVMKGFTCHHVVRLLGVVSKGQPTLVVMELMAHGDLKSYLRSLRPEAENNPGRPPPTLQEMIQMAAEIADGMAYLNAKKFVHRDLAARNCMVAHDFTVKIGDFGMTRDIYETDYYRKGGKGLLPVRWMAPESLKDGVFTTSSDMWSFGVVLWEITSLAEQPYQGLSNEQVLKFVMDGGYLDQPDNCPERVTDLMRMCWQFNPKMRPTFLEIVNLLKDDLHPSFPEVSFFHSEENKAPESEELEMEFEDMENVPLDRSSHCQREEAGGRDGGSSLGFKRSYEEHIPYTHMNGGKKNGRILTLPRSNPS
# [3] = biological target: recombinant human insulin receptor (Homo sapiens, UniProt P06213); test: Substrate phosphorylation assay (HIR kinase); assay type: biochemical; conditions: for Kinase Pot. (nM): potency, Table 8
# Sequence of recombinant human insulin receptor (P06213 28-758 limits assumed): as the sequence (P06213 28-758 limits assumed) above
# Sequence of recombinant human insulin receptor (P06213 763-1382 limits assumed): as the sequence (P06213 763-1382 limits assumed) above
# Method: Subsequently, a 2000-fold dilution of horseradish peroxidase (HRPO) conjugated phosphotyrosine antibody (Transduction Laboratories, Cat. No. E120H) in TBS was added. The plates were incubated for 30 min and washed 3 times with TBS. TMB (3,3′,5,5′-tetramethylbenzidine; Kem-En-Tec, Copenhagen, Denmark) was added. One substrate from Kem-En-Tec was added. After 10^−15 min, the reaction was stopped by the addition of 1% acetic acid. The absorbance, representing the extent of substrate phosphorylation, was measured in a spectrophotometer at a wavelength of 450 nm.
# [4] = test system: FDC-P2 cells expressing the IL-3 and human IGF-1R receptors
# [5] = biological target: T2, soluble human insulin receptor-immunoglobulin heavy chain chimera (sIR-Fc) (Homo sapiens, UniProt P06213); test: Fluorescence polarization competition with FITC-RP9, sIR-Fc; assay type: binding; conditions: for Bndg Ratio IGF-1R/1R: higher values indicated higher affinity for IR than IGF-1R
# T2 construct: replacing the transmembrane domain and the intracellular domain of IR with constant domains from immunoglobulin Fc or λ subunits; made in house; host or cells: human embryonic kidney 293 cells (as described for the Bass construct)
# T2 sequence (P06213 28-758 limits assumed, stated change not applied): as the sequence (P06213 28-758 limits assumed) above
# T2 sequence (P06213 763-956 limits assumed, stated change not applied): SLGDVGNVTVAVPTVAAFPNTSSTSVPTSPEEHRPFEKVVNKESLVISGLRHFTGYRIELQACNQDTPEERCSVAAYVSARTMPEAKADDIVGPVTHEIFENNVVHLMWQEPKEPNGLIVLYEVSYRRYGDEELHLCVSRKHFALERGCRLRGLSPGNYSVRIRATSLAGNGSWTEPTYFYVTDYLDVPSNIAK
# IGF-1R = IGF-1R (Homo sapiens, UniProt P08069)
# Sequence of IGF-1R (P08069 31-736 limits assumed): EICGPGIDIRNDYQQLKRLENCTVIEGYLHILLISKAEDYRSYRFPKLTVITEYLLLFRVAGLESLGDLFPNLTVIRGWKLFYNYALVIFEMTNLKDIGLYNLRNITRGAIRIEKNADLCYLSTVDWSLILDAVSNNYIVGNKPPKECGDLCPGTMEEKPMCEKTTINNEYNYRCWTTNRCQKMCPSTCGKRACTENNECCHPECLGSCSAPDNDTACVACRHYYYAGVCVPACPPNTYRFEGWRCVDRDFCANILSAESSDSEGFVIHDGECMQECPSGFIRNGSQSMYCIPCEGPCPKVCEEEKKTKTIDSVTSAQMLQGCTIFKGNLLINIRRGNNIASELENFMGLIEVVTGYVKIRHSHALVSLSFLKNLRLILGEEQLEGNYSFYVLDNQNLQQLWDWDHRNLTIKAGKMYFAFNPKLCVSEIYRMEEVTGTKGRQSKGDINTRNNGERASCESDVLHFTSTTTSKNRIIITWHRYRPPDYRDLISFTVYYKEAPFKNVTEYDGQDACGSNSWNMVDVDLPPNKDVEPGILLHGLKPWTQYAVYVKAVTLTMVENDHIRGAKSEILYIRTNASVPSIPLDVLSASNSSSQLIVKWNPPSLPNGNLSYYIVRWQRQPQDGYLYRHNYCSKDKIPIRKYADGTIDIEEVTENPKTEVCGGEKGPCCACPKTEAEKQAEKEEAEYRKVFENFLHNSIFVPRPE
# Sequence of IGF-1R (P08069 741-935 limits assumed): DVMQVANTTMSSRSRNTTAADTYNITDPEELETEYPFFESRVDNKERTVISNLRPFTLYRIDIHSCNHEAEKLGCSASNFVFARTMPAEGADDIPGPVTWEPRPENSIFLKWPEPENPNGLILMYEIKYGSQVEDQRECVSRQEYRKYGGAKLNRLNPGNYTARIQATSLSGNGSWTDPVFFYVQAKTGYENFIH
# [6] = in the presence of a stimulating concentration of insulin
# [7] = standard concentration of insulin
molecule,measurement,setting,value
CC(C)C[C@H](NC(=O)[C@H](CCC(N)=O)NC(=O)[C@H](CCCNC(=N)N)NC(=O)[C@H](CCC(=O)O)NC(=O)[C@H](Cc1ccccc1)NC(=O)[C@H](Cc1c[nH]c2ccccc12)NC(=O)[C@H](CC(=O)O)NC(=O)[C@H](Cc1ccc(O)cc1)NC(=O)[C@H](Cc1ccccc1)NC(=O)[C@H](CO)NC(=O)[C@@H](N)CCC(=O)O)C(=O)NCC(=O)O [Peptide S390],activity in the FFC assay / at IR,free fat cells,potency similar to full-length RP9 monomer peptides
same,Hill,[1],−0.94
WFGYAWLS-NH2 (C-terminus assumed) [Peptide S317],HIR binding affinity,[2],increased HIR binding affinity
same,activity in the FFC assay / at IR,free fat cells,increased potency in FFC assays
same,FEC,"free fat cells; FFC assay potency, number of + grades agonist potency",0
CC[C@@H](C)[C@@H](NC(=O)[C@H](CCC(=O)O)NC(=O)[C@H](CC(=O)O)NC(=O)[C@H](Cc1ccccc1)NC(=O)[C@H](Cc1c[nH]c2ccccc12)NC(=O)[C@H](CCC(=O)O)NC(=O)[C@H](Cc1ccc(O)cc1)NC(=O)[C@H](Cc1ccccc1)NC(=O)[C@H](CCC(=O)O)NC(=O)[C@H](CCCCN)NC(=O)[C@H](CC(N)=O)NC(=O)[C@H](CC(N)=O)NC(=O)[C@@H](N)CCCCN)C(=O)NCC(=O)N[C@H](CCC(N)=O)C(=O)O [Peptide S320] (HELM PEPTIDE1{K.N.N.K.E.F.Y.E.W.F.D.E.[dI].G.[dQ]}$$$$V2.0; N-terminus and C-terminus assumed),Kd,[2]; HIR binding affinity of synthetic peptides,2800 nM
MADYKDDDDKWLDQEWAWVQCEWGRGCPSGGSGGSGSLDESFYDWFERQLGKKAAA(ETAG)PG [Peptide 539],activity in the HIR kinase assay,[3],more active
same,HIR binding affinity,[2],substantially higher (several orders of magnitude) affinity
same,activity in the FFC assay / at IR,free fat cells,full agonist
same,FFC Pot.,free fat cells,10 nM
GRVDWLQRNANFYDWFVAELG [Peptide S175],EC50,[4],10000 nM
same,"ED50, agonist activity at IGF-1R",[4]; FDC-P2 cells,> 10000 nM
same,agonist activity at IGF-1R,[4]; FDC-P2 cells,IGF-1R agonist activity
same,Hill,[1],−1.72
PPWGARFYDAIEQLVFDNL [RP4],affinity / potency at IR,"[5]; FP, FITC-RP9, summary of Table 22",high affinities for IR
same,Bndg Ratio IGF-1R/1R,[5],476
same,IC50,"[5]; vs. FITC-RP9, Table 22, read-out: FP sIR-Fc IC50",17 nM
same,IC50,IGF-1R,8100 nM
same,binding ratio for IGF-1R over IR,"IGF-1R; TR-FRET at rhIGF-1R versus FP at sIR-Fc, summary of Table 22",high binding ratios for IGF-1R over IR
DYKDFYDAIDQLVRGSARAGGTRD [20E2(D118)],Bndg Ratio IGF-1R/1R,[5],1.9
same,IC50,"IGF-1R; read-out: TR-FRET rhIGF-1R IC50, vs. b-20E2, Table 22",100 nM
MADYKDDDDKGSLDESFYDWFERQLGKKGGSGGSWLDQEWAWVQCEVYGRGCPSAAA(ETAG)PG [Peptide 537],Kinase Pot. (nM),[3],Inactive
same,HIR binding affinity,[2],substantially higher (several orders of magnitude) affinity
same,activity in the FFC assay / at IR,free fat cells,specific insulin receptor antagonists
same,FFC Pot.: agonist or antagonist,free fat cells,N
same,activity in the FFC assay,free fat cells; [6],antagonists
same,FFC Pot.,free fat cells,10 nM
same,activity in the FFC assay,free fat cells; [7],inactive
MADYKDDDDKGSLDESFYDWFERQLGKKGGSGGSGGSGGSWLDQEWAWVQCEVYGRGCPSAAA(ETAG)PG [Peptide 538],Kinase Pot. (nM),[3],Inactive
same,HIR binding affinity,[2],substantially higher (several orders of magnitude) affinity
same,activity in the FFC assay / at IR,free fat cells,specific insulin receptor antagonists
same,FFC Pot.: agonist or antagonist,free fat cells,N
same,activity in the FFC assay,free fat cells; [6],antagonists
same,FFC Pot.,free fat cells,10 nM
same,activity in the FFC assay,free fat cells; [7],inactive
